US10544153B2, “Benzoic acid, benzoic acid derivatives and heteroaryl carboxylic acid conjugates of oxycodone, prodrugs, methods of making and use thereof” (KemPharm, Inc., priority 2014, dated 2020)

Experiment: Tamper resistance: percent of OC released under tampering conditions, LC-MS/MS
Assay type: physicochemical
Conditions: 1N HCl, RT, 1 hour
Description: Effective abuse deterrent forms of drugs of abuse can also be resistant to chemical tampering. The prodrugs in the present technology also impart this characteristic. Several common tampering scenarios were employed and percent of OC released were determined by liquid chromatography with tandem mass spectrometry (LC-MS/MS). The results as shown in Table 7 indicated a very high degree of tamper resistance in the example OC prodrugs, releasing little to no OC.

With `COc1ccc(C(=O)OC2=CC[C@@]3(OC(=O)c4ccc(OC)cc4)[C@H]4Cc5ccc(OC)c6c5[C@@]3(CCN4C)[C@H]2O6)cc1` [(4-MeO-Bz)2-OC] as the compound, how does the “percent of OC released” value read?
Its value is 0%.

Which “percent of OC released” value does the source give for `COc1cc(C(=O)OC2=CC[C@@]3(OC(=O)c4ccc(O)c(OC)c4)[C@H]4Cc5ccc(OC)c6c5[C@@]3(CCN4C)[C@H]2O6)ccc1O` [(4-OH-3-MeO-Bz)2-OC] here?
Its value is 0%.

With `COc1ccc2c3c1O[C@H]1C(OC(=O)c4ccc(O)cc4)=CC[C@@]4(OC(=O)c5ccc(O)cc5)[C@@H](C2)N(C)CC[C@]314` [(4-OH-Bz)2-OC] as the compound, how does the “percent of OC released” value read?
Its value is 0%.

Which “percent of OC released” value does the source give for `COc1ccc2c3c1O[C@H]1C(OC(=O)c4ccccc4)=CC[C@@]4(OC(=O)c5ccccc5)[C@@H](C2)N(C)CC[C@]314` [(Bz)2-OC] here?
Its value is 0%.

With `COc1ccc2c3c1O[C@H]1C(OC(=O)/C=C/c4ccccc4)=CC[C@@]4(OC(=O)/C=C/c5ccccc5)[C@@H](C2)N(C)CC[C@]314` [(Cin)2-OC] as the compound, how does the “percent of OC released” value read?
The value was 0%.

Which “percent of OC released” value does the source give for `COc1ccc2c3c1O[C@H]1C(OC(=O)c4ccccc4)=CC[C@@]4(O)[C@@H](C2)N(C)CC[C@]314` [Bz-OC] here?
The value was 0%.

Which “percent of OC released” value does the source give for `COc1ccc2c3c1O[C@H]1C(OC(=O)c4ccccc4N)=CC[C@@]4(O)[C@@H](C2)N(C)CC[C@]314` [Conjugate 2-ABz-OC] here?
Its value is 0%.

With `COc1ccc2c3c1O[C@H]1C(OC(=O)c4ccccc4O)=CC[C@@]4(O)[C@@H](C2)N(C)CC[C@]314` [Conjugate 2-OH-Bz-OC] as the compound, how does the “percent of OC released” value read?
Its value is 0%.

For `COc1ccc2c3c1O[C@H]1C(OC(=O)c4cccc(O)c4)=CC[C@@]4(O)[C@@H](C2)N(C)CC[C@]314` [Conjugate 3-OH-Bz-OC], which “percent of OC released” value is on record?
Its value is <1%.

Which “percent of OC released” value does the source give for `COc1ccc2cc(C(C)C(=O)OC3=CCC4(O)C5Cc6ccc(OC)c7c6C4(CCN5C)C3O7)ccc2c1` (stereo not shown) [Naprox-OC] here?
The value was <1%.

Same assay, conditions: 5% Bicarbonate, RT, 1 hour

For `COc1ccc(C(=O)OC2=CC[C@@]3(OC(=O)c4ccc(OC)cc4)[C@H]4Cc5ccc(OC)c6c5[C@@]3(CCN4C)[C@H]2O6)cc1` [(4-MeO-Bz)2-OC], which “percent of OC released” value is on record?
The value was 0%.

For `COc1cc(C(=O)OC2=CC[C@@]3(OC(=O)c4ccc(O)c(OC)c4)[C@H]4Cc5ccc(OC)c6c5[C@@]3(CCN4C)[C@H]2O6)ccc1O` [(4-OH-3-MeO-Bz)2-OC], which “percent of OC released” value is on record?
The value was 0%.

For `COc1ccc2c3c1O[C@H]1C(OC(=O)c4ccc(O)cc4)=CC[C@@]4(OC(=O)c5ccc(O)cc5)[C@@H](C2)N(C)CC[C@]314` [(4-OH-Bz)2-OC], which “percent of OC released” value is on record?
Its value is 0%.

For `COc1ccc2c3c1O[C@H]1C(OC(=O)c4ccccc4)=CC[C@@]4(OC(=O)c5ccccc5)[C@@H](C2)N(C)CC[C@]314` [(Bz)2-OC], which “percent of OC released” value is on record?
Its value is 0%.

For `COc1ccc2c3c1O[C@H]1C(OC(=O)/C=C/c4ccccc4)=CC[C@@]4(OC(=O)/C=C/c5ccccc5)[C@@H](C2)N(C)CC[C@]314` [(Cin)2-OC], which “percent of OC released” value is on record?
The value was 0%.

Which “percent of OC released” value does the source give for `COc1ccc2c3c1O[C@H]1C(OC(=O)c4ccccc4)=CC[C@@]4(O)[C@@H](C2)N(C)CC[C@]314` [Bz-OC] here?
The value was 0%.

Which “percent of OC released” value does the source give for `COc1ccc2c3c1O[C@H]1C(OC(=O)c4ccccc4N)=CC[C@@]4(O)[C@@H](C2)N(C)CC[C@]314` [Conjugate 2-ABz-OC] here?
The value was 3%.

With `COc1ccc2c3c1O[C@H]1C(OC(=O)c4ccccc4O)=CC[C@@]4(O)[C@@H](C2)N(C)CC[C@]314` [Conjugate 2-OH-Bz-OC] as the compound, how does the “percent of OC released” value read?
The value was 5%.

With `COc1ccc2c3c1O[C@H]1C(OC(=O)c4cccc(O)c4)=CC[C@@]4(O)[C@@H](C2)N(C)CC[C@]314` [Conjugate 3-OH-Bz-OC] as the compound, how does the “percent of OC released” value read?
Its value is 0%.

With `COc1ccc2cc(C(C)C(=O)OC3=CCC4(O)C5Cc6ccc(OC)c7c6C4(CCN5C)C3O7)ccc2c1` (stereo not shown) [Naprox-OC] as the compound, how does the “percent of OC released” value read?
The value was 0%.

Same assay, conditions: Water, RT, 1 hour

With `COc1ccc(C(=O)OC2=CC[C@@]3(OC(=O)c4ccc(OC)cc4)[C@H]4Cc5ccc(OC)c6c5[C@@]3(CCN4C)[C@H]2O6)cc1` [(4-MeO-Bz)2-OC] as the compound, how does the “percent of OC released” value read?
The value was 0%.

Which “percent of OC released” value does the source give for `COc1cc(C(=O)OC2=CC[C@@]3(OC(=O)c4ccc(O)c(OC)c4)[C@H]4Cc5ccc(OC)c6c5[C@@]3(CCN4C)[C@H]2O6)ccc1O` [(4-OH-3-MeO-Bz)2-OC] here?
The value was 0%.

Which “percent of OC released” value does the source give for `COc1ccc2c3c1O[C@H]1C(OC(=O)c4ccc(O)cc4)=CC[C@@]4(OC(=O)c5ccc(O)cc5)[C@@H](C2)N(C)CC[C@]314` [(4-OH-Bz)2-OC] here?
Its value is 0%.

Which “percent of OC released” value does the source give for `COc1ccc2c3c1O[C@H]1C(OC(=O)c4ccccc4)=CC[C@@]4(OC(=O)c5ccccc5)[C@@H](C2)N(C)CC[C@]314` [(Bz)2-OC] here?
The value was 0%.

Which “percent of OC released” value does the source give for `COc1ccc2c3c1O[C@H]1C(OC(=O)/C=C/c4ccccc4)=CC[C@@]4(OC(=O)/C=C/c5ccccc5)[C@@H](C2)N(C)CC[C@]314` [(Cin)2-OC] here?
The value was 0%.

With `COc1ccc2c3c1O[C@H]1C(OC(=O)c4ccccc4)=CC[C@@]4(O)[C@@H](C2)N(C)CC[C@]314` [Bz-OC] as the compound, how does the “percent of OC released” value read?
The value was 0%.

For `COc1ccc2c3c1O[C@H]1C(OC(=O)c4ccccc4N)=CC[C@@]4(O)[C@@H](C2)N(C)CC[C@]314` [Conjugate 2-ABz-OC], which “percent of OC released” value is on record?
The value was <1%.

Which “percent of OC released” value does the source give for `COc1ccc2c3c1O[C@H]1C(OC(=O)c4ccccc4O)=CC[C@@]4(O)[C@@H](C2)N(C)CC[C@]314` [Conjugate 2-OH-Bz-OC] here?
The value was 0%.

For `COc1ccc2c3c1O[C@H]1C(OC(=O)c4cccc(O)c4)=CC[C@@]4(O)[C@@H](C2)N(C)CC[C@]314` [Conjugate 3-OH-Bz-OC], which “percent of OC released” value is on record?
Its value is 0%.

For `COc1ccc2cc(C(C)C(=O)OC3=CCC4(O)C5Cc6ccc(OC)c7c6C4(CCN5C)C3O7)ccc2c1` (stereo not shown) [Naprox-OC], which “percent of OC released” value is on record?
Its value is 0%.

Same assay, conditions: Water, RT, 24 hours

With `COc1ccc(C(=O)OC2=CC[C@@]3(OC(=O)c4ccc(OC)cc4)[C@H]4Cc5ccc(OC)c6c5[C@@]3(CCN4C)[C@H]2O6)cc1` [(4-MeO-Bz)2-OC] as the compound, how does the “percent of OC released” value read?
The value was 0%.

With `COc1cc(C(=O)OC2=CC[C@@]3(OC(=O)c4ccc(O)c(OC)c4)[C@H]4Cc5ccc(OC)c6c5[C@@]3(CCN4C)[C@H]2O6)ccc1O` [(4-OH-3-MeO-Bz)2-OC] as the compound, how does the “percent of OC released” value read?
The value was 0%.

Which “percent of OC released” value does the source give for `COc1ccc2c3c1O[C@H]1C(OC(=O)c4ccc(O)cc4)=CC[C@@]4(OC(=O)c5ccc(O)cc5)[C@@H](C2)N(C)CC[C@]314` [(4-OH-Bz)2-OC] here?
Its value is 0%.

With `COc1ccc2c3c1O[C@H]1C(OC(=O)c4ccccc4)=CC[C@@]4(OC(=O)c5ccccc5)[C@@H](C2)N(C)CC[C@]314` [(Bz)2-OC] as the compound, how does the “percent of OC released” value read?
The value was 0%.

For `COc1ccc2c3c1O[C@H]1C(OC(=O)/C=C/c4ccccc4)=CC[C@@]4(OC(=O)/C=C/c5ccccc5)[C@@H](C2)N(C)CC[C@]314` [(Cin)2-OC], which “percent of OC released” value is on record?
The value was 0%.

For `COc1ccc2c3c1O[C@H]1C(OC(=O)c4ccccc4)=CC[C@@]4(O)[C@@H](C2)N(C)CC[C@]314` [Bz-OC], which “percent of OC released” value is on record?
The value was 0%.

For `COc1ccc2c3c1O[C@H]1C(OC(=O)c4ccccc4N)=CC[C@@]4(O)[C@@H](C2)N(C)CC[C@]314` [Conjugate 2-ABz-OC], which “percent of OC released” value is on record?
The value was <1%.

For `COc1ccc2c3c1O[C@H]1C(OC(=O)c4ccccc4O)=CC[C@@]4(O)[C@@H](C2)N(C)CC[C@]314` [Conjugate 2-OH-Bz-OC], which “percent of OC released” value is on record?
The value was 0%.

Which “percent of OC released” value does the source give for `COc1ccc2c3c1O[C@H]1C(OC(=O)c4cccc(O)c4)=CC[C@@]4(O)[C@@H](C2)N(C)CC[C@]314` [Conjugate 3-OH-Bz-OC] here?
Its value is 0%.

Which “percent of OC released” value does the source give for `COc1ccc2cc(C(C)C(=O)OC3=CCC4(O)C5Cc6ccc(OC)c7c6C4(CCN5C)C3O7)ccc2c1` (stereo not shown) [Naprox-OC] here?
The value was 0%.
